US10993983B2, “Cyclic peptide epitopes and small-molecule mimics for inducing autophagy” (TRUSTEES OF TUFTS COLLEGE, priority 2016, dated 2021)
Where no end group is shown, it is not given here. [ ]: non-standard residue; d: D form.

Assays:
p62 = p62 degradation assay (p62/actin immunoblot);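 for Activity (μM) 10, p62/actin assay activity: HeLa cells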;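 for Activity (μM) 100, p62/actin assay activity: HeLa cells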;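 for Activity (μM) 20, p62/actin assay activity: HeLa cells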;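 for Activity (μM) 30, p62/actin assay activity: HeLa cells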;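 for Activity (μM) 50, p62/actin assay activity: HeLa cells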; type: cell-based; parameters: key: −: activity not reported; 0: decreased vs. WT; +: similar to WT; ++: modest increase vs. WT; +++: significant increase vs. WT; conditions: for Activity (μM) 10, p62/actin assay activity: 10 μM; for Activity (μM) 30, p62/actin assay activity: 30 μM; for Activity (μM) 50, p62/actin assay activity: 50 μM; for Activity (μM) 100, p62/actin assay activity: 100 μM; for Activity (μM) 20, p62/actin assay activity: 20 μM
Method: (§1) Cells were treated with peptide in OPTI-MEM (Thermo Scientific) acidified with 0.15% (v/v) 6N HCl for 3 hour. Cells were rinsed with Dulbecco's phosphate buffered saline (PBS) and lysed in lysis buffer (20 mM HEPES, 150 mM NaCl, 1 mM EDTA, 1% Triton X-100, protease inhibitor cocktail (Roche) on ice for 1 hour. Cell lysates were centrifuged at 16,000 g for 10 min at 4° C. and analyzed by SDS-PAGE and transferred to PVDF membranes. The membranes were blocked 5% non-fat dry milk (NFDM) in PBST (PBS+0.05% Tween-20) for 1 hour, then incubated overnight at 4° C. with primary antibody in 5% NFDM in PBST. The blots were washed with PBST and incubated with HRP-conjugated secondary antibodies diluted in 5% NFDM in PBST for 1 hour at room temperature. Membranes were washed with PBST and visualized with SuperSignal West Pico Chemiluminescent Substrate (Thermo Scientific). Semi-quantitative results were obtained by noting the lowest concentration at which both p62 degradation and LC3-I to LC3-II conversion were observed.
(§2) Compounds 1-10 were evaluated using the assays described in Examples 4 and 5. Activity for each compound was measured in the p62 degradation assay and the LC3 marker assay as described herein. The activity at each concentration of peptide is given as, for example, (0/+) where 0 would be the p62/actin assay activity and + would be the LC3 assay activity.

LC3 = LC3 marker assay (LC3-I to LC3-II conversion immunoblot);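 for Activity (μM) 10, LC3 assay activity: HeLa cells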;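 for Activity (μM) 100, LC3 assay activity: HeLa cells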;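 for Activity (μM) 20, LC3 assay activity: HeLa cells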;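 for Activity (μM) 30, LC3 assay activity: HeLa cells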;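 for Activity (μM) 50, LC3 assay activity: HeLa cells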; type: cell-based; parameters: key: −: activity not reported; 0: decreased vs. WT; +: similar to WT; ++: modest increase vs. WT; +++: significant increase vs. WT; conditions: for Activity (μM) 10, LC3 assay activity: 10 μM; for Activity (μM) 30, LC3 assay activity: 30 μM; for Activity (μM) 50, LC3 assay activity: 50 μM; for Activity (μM) 100, LC3 assay activity: 100 μM; for Activity (μM) 20, LC3 assay activity: 20 μM
Method: as §1, §2

[1] = Table 6, control DMSO, first symbol
[2] = Table 6, control DMSO, second symbol
[3] = Table 8, control compound T25, first symbol
[4] = Table 8, control compound T25, second symbol
[5] = Table 3, control vehicle, first symbol of cell
[6] = Table 3, control vehicle, first symbol
[7] = Table 3, control vehicle, second symbol of cell
[8] = Table 3, control vehicle, second symbol
[9] = Table 7, control compound T25, first symbol
[10] = Table 7, control compound T25, second symbol

VCNATCHIWH [Compound 21]
Activity (μM) 10, p62/actin assay activity (p62; [1]): ++ | Activity (μM) 30, p62/actin assay activity (p62; [1]): +++ | Activity (μM) 50, p62/actin assay activity (p62; [1]): +++ | Activity (μM) 100, p62/actin assay activity (p62; [1]): +++ | Activity (μM) 10, LC3 assay activity (LC3; [2]): 0 | Activity (μM) 30, LC3 assay activity (LC3; [2]): 0 | Activity (μM) 50, LC3 assay activity (LC3; [2]): 0 | Activity (μM) 100, LC3 assay activity (LC3; [2]): 0

VCNATCHIWR (V[dC]NAT[dC]HIWR; cysteine pairing not given here) [Compound 38]
Activity (μM) 50, p62/actin assay activity (p62; [3]): 0/0 | Activity (μM) 100, p62/actin assay activity (p62; [3]): 0/0 | Activity (μM) 50, LC3 assay activity (LC3; [4]): 0/0 | Activity (μM) 100, LC3 assay activity (LC3; [4]): 0/0

VCNATCHIWH [Compound 50]
Activity (μM) 50, p62/actin assay activity (p62; [3]): ++ | Activity (μM) 100, p62/actin assay activity (p62; [3]): ++ | Activity (μM) 50, LC3 assay activity (LC3; [4]): +++ | Activity (μM) 100, LC3 assay activity (LC3; [4]): +++

VCNACFHIWH [Compound 55]
Activity (μM) 10, p62/actin assay activity (p62; [3]): 0/0 | Activity (μM) 30, p62/actin assay activity (p62; [3]): ++ | Activity (μM) 50, p62/actin assay activity (p62; [3]): +++ | Activity (μM) 10, LC3 assay activity (LC3; [4]): 0/0 | Activity (μM) 30, LC3 assay activity (LC3; [4]): 0 | Activity (μM) 50, LC3 assay activity (LC3; [4]): 0

VCNATCHIWH [Compound 23]
Activity (μM) 10, p62/actin assay activity (p62; [1]): + | Activity (μM) 30, p62/actin assay activity (p62; [1]): ++/++ | Activity (μM) 50, p62/actin assay activity (p62; [1]): +++ | Activity (μM) 100, p62/actin assay activity (p62; [1]): +++ | Activity (μM) 10, LC3 assay activity (LC3; [2]): 0 | Activity (μM) 30, LC3 assay activity (LC3; [2]): ++/++ | Activity (μM) 50, LC3 assay activity (LC3; [2]): ++ | Activity (μM) 100, LC3 assay activity (LC3; [2]): ++

VCNACFHIWH [Compound 53]
Activity (μM) 50, p62/actin assay activity (p62; [3]): +++ | Activity (μM) 100, p62/actin assay activity (p62; [3]): +++ | Activity (μM) 50, LC3 assay activity (LC3; [4]): ++ | Activity (μM) 100, LC3 assay activity (LC3; [4]): ++

VCNACFHIWH [Compound 74]
Activity (μM) 30, p62/actin assay activity (p62; [3]): 0 | Activity (μM) 50, p62/actin assay activity (p62; [3]): +++/+++ | Activity (μM) 10, starred cell, p62/actin assay activity (p62; Table 8, 10 μM marked * (footnote: data taken at 20 instead of 30 μM), first symbol): 0 | Activity (μM) 30, LC3 assay activity (LC3; [4]): ++ | Activity (μM) 50, LC3 assay activity (LC3; [4]): +++/+++ | Activity (μM) 10, starred cell, LC3 assay activity (LC3; Table 8, 10 μM marked * (footnote: data taken at 20 instead of 30 μM), second symbol): +

VWNATFHIWH (not fully specified (N-terminus, C-terminus)) [Compound 64]
Activity (μM) 10, p62/actin assay activity (p62; [3]): 0/0 | Activity (μM) 30, starred cell, p62/actin assay activity (p62; Table 8, *Data taken at 20 instead of 30 μM, first symbol): 0/0* | Activity (μM) 10, LC3 assay activity (LC3; [4]): 0/0 | Activity (μM) 30, starred cell, LC3 assay activity (LC3; Table 8, *Data taken at 20 instead of 30 μM, second symbol): 0/0*

YGRKKRRQRRRGGVWNATFHIWHD [8] (not fully specified (N-terminus, C-terminus)) [Compound 8]
Activity (μM) 10, p62/actin assay activity (p62; [5]): 0 | Activity (μM) 20, p62/actin assay activity (p62; [6]): 0 | Activity (μM) 50, p62/actin assay activity (p62; [6]): ++ | Activity (μM) 10, LC3 assay activity (LC3; [7]): + | Activity (μM) 20, LC3 assay activity (LC3; [8]): ++ | Activity (μM) 50, LC3 assay activity (LC3; [8]): +++

VCNATCHIWH [Compound 33]
Activity (μM) 5, p62/actin assay activity (p62; 5 μM, Table 8, control compound T25, first symbol): 0/0 | Activity (μM) 10, p62/actin assay activity (p62; [3]): 0 | Activity (μM) 30, p62/actin assay activity (p62; [3]): +++ | Activity (μM) 50, p62/actin assay activity (p62; [3]): +++/+++ | Activity (μM) 100, p62/actin assay activity (p62; [3]): +++/+++ | Activity (μM) 5, LC3 assay activity (LC3; 5 μM, Table 8, control compound T25, second symbol): 0/0 | Activity (μM) 10, LC3 assay activity (LC3; [4]): + | Activity (μM) 30, LC3 assay activity (LC3; [4]): ++ | Activity (μM) 50, LC3 assay activity (LC3; [4]): +++/+++ | Activity (μM) 100, LC3 assay activity (LC3; [4]): +++/+++

VCNACFHIWH [Compound 4]
Activity (μM) 10, p62/actin assay activity (p62; [5]): 0/0 | Activity (μM) 20, p62/actin assay activity (p62; [6]): 0/0 | Activity (μM) 30, p62/actin assay activity (p62; [9]): 0/0 | Activity (μM) 50, p62/actin assay activity (p62; [6]): 0/0 | Activity (μM) 50, p62/actin assay activity (p62; [9]): ++/++ | Activity (μM) 100, p62/actin assay activity (p62; [6]): +++ | Activity (μM) 100, p62/actin assay activity (p62; [9]): +++/+++ | Activity (μM) 10, LC3 assay activity (LC3; [7]): 0/0 | Activity (μM) 20, LC3 assay activity (LC3; [8]): 0/0 | Activity (μM) 30, LC3 assay activity (LC3; [10]): 0/0 | Activity (μM) 50, LC3 assay activity (LC3; [8]): 0/0 | Activity (μM) 50, LC3 assay activity (LC3; [10]): ++/++ | Activity (μM) 100, LC3 assay activity (LC3; [8]): + | Activity (μM) 100, LC3 assay activity (LC3; [10]): +++/+++
